pEC50: −log10 of the molar value.

The target of the test is ATP-dependent translocase ABCB1 (Homo sapiens, UniProt P08183).
Chain of ATP-dependent translocase ABCB1 (P08183 whole entry): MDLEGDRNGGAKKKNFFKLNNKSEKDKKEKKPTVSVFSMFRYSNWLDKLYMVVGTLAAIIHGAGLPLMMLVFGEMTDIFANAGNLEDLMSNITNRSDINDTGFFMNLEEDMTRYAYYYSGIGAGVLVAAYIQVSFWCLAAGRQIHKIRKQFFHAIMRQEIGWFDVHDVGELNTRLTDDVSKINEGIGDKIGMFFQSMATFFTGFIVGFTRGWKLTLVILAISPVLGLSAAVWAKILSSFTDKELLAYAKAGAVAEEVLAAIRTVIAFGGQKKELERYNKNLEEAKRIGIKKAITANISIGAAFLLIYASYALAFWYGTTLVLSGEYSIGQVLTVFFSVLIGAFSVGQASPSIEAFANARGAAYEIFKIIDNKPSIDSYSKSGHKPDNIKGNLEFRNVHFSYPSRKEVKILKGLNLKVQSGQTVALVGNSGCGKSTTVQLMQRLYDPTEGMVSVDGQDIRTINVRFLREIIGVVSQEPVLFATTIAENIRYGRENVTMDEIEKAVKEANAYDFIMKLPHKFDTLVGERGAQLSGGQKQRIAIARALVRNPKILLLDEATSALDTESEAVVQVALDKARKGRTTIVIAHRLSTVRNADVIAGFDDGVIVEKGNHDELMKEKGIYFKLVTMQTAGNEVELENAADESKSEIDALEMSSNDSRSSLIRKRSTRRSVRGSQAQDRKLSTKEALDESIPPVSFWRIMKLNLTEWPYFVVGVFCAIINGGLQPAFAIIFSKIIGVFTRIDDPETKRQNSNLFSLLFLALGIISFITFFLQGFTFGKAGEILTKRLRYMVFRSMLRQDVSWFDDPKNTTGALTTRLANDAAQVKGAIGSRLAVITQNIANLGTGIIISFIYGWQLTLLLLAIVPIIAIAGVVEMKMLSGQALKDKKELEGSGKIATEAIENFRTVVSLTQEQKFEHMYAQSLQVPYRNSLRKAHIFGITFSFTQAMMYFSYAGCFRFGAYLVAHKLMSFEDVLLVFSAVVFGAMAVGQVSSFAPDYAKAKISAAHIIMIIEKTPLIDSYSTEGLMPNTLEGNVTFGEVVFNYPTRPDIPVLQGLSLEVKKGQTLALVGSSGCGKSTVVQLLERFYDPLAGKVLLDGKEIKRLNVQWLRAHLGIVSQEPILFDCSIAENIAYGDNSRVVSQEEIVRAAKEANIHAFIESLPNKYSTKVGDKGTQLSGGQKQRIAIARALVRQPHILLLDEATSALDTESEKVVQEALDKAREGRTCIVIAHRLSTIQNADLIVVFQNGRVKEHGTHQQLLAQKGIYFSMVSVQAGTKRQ
For `Cc1ccc(C(=O)N2c3ccccc3[C@H](NCc3ccccc3)[C@@H](O)[C@H]2C)cc1`, the pEC50 (usually the EC50 on a negative log10 scale, so that one unit is a factor of ten) was 5.49. The same measure for `Cc1c(C(=O)c2ccccc2)c(=O)n(-c2ccccc2)n1C[C@H](O)CNC(C)(C)C`: 4.09; for `C[C@H]1C(=O)O[C@@H]2[C@H](c3cc(C#N)ccc3OC2(C)C)N1C`: 4.54. The same measure for `C[C@H]1c2ccccc2O[C@H]1C(=O)N1CCCCC1`: 3.98.

`CC(C)(C)OC(=O)N1CCN(C[C@@H](O)COc2ccccc2C(=O)c2ccccc2)CC1` gave a pEC50 of 6.06.

Compound `O=C(CCc1ccccc1)c1ccc(OC[C@H](O)CNCCC(c2ccccc2)c2ccccc2)cc1` gave a pEC50 of 6.30. The same measure for `O=C(CCc1cccc2ccccc12)c1cccc(OCC(O)CN2CCN(c3ccc(F)cc3)CC2)c1` (centres undefined): 6.80; for `O=C(CCc1ccccc1)c1ccccc1OC[C@H](O)CNCC(c1ccccc1)c1ccccc1`: 6.10. `CC(C)[C@H](C(=O)OC(C)(C)C)N(C)[C@H]1c2cc(C#N)ccc2OC(C)(C)[C@@H]1O` showed a pEC50 of 6.01. The same measure for `CC(C)[C@@H](C(=O)OC(C)(C)C)N(C)[C@@H]1c2cc(C#N)ccc2OC(C)(C)[C@H]1O`: 6.02.

With `CC(=O)c1ccccc1OC[C@H](O)CN1CCC(O)(c2ccccc2)CC1`, the pEC50 was 5.50.

As for `O=C(CCc1cccc2ccccc12)c1ccc(OC[C@H](O)CN2CCN(c3ccc(F)cc3)CC2)cc1`, the pEC50 was 6.26. `COc1ccc(N2CCN(C[C@@H](O)COc3ccccc3C(=O)CCc3ccccc3)CC2)cc1`: the pEC50 is 6.59.

The compound `O=C(CCc1cccc2ccccc12)c1ccccc1OC[C@H](O)CN1CCC(O)(c2ccccc2)CC1` had a pEC50 of 7.12. `O=C(CCc1cccc2ccccc12)c1cccc(OC[C@H](O)CN2CCOCC2)c1`: the pEC50 was 6.20. In the case of `Cc1ccc(NC(=O)N2CCN(C[C@@H](O)COc3ccccc3C(=O)c3ccccc3)CC2)cc1` it was 6.32; in that of `CO[C@H](CCc1ccccc1)c1ccccc1OC[C@H](O)CN(C(C)C)C(C)C`, 6.18. The same measure for `CO[C@@H](CCc1ccccc1)c1ccccc1OC[C@H](O)CN1CCN(c2ccccc2C)CC1`: 7.44. In the case of `CN1CCO[C@@H]2[C@@H]1c1cc(C#N)ccc1OC2(C)C` it was 4.21; in that of `CN[C@H]1c2cc(C#N)ccc2OC(C)(C)[C@@H]1O`, 3.51. The compound `CNC1c2cc(C#N)ccc2OC(C)(C)C1O` (centres undefined) gave a pEC50 of 3.11. In the case of `CC(C)[C@@H](CO)N[C@H]1c2cc(C#N)ccc2OC(C)(C)[C@@H]1O` it was 3.99; in that of `CC(=O)c1ccc(OC[C@H](O)CN2CCOCC2)cc1`, 3.52. In the case of `CC(C)[C@@H](N[C@H]1c2ccccc2OC(C)(C)[C@@H]1O)C(=O)OC(C)(C)C` it was 5.87; in that of `O=C(CCc1ccccc1)c1ccccc1OC[C@H](O)CNC1CCCCC1`, 6.47; in that of `CC(=O)c1cccc(OC[C@H](O)CN2CCN(c3cccc(C)c3C)CC2)c1`, 6.42. For the compound `CC(=O)c1ccccc1OC[C@H](O)CN1CCOCC1`, the pEC50 was 4.17.

On to `O=C(CCc1cccc2ccccc12)c1ccccc1OC[C@H](O)CN1CCOCC1`, for which the pEC50 was 6.14. The same measure for `CCC(=O)c1ccc(OC[C@H](O)CN2CCN(c3ccccc3C)CC2)cc1`: 6.06; for `CO[C@H](CCc1ccccc1)c1ccccc1OC[C@H](O)CN1CCOCC1`: 5.74. In turn, `O[C@@H](COc1ccccc1[C@@H](O)CCc1ccccc1)CN1CCCCC1` gave a pEC50 of 6.06. In the case of `COc1ccc(C(=O)CCc2ccc(N(C)C)cc2)c(OC[C@H](O)CN2CCN(c3ccccc3C)CC2)c1` it was 7.40; in that of `CCC(=O)c1ccccc1OC[C@H](O)CN1CCN(Cc2ccccc2)CC1`, 5.84. In the case of `O=C(CCc1ccccc1)c1ccc(OC[C@H](O)CN2CCCCC2)cc1` it was 6.01; in that of `O=C(CCc1ccccc1)c1cccc(OC[C@H](O)CN2CCN(c3ccc(F)cc3)CC2)c1`, 5.95; in that of `Cc1cccc(N2CCN(C[C@H]3CC(=O)c4ccccc4O3)CC2)c1C`, 5.69.

With `CC(=O)c1cc(C)ccc1OC[C@H](O)CN1CCN(c2ccc(C)cc2)CC1`, the pEC50 is 5.50. The compound `O=C(CCc1ccccc1)c1cccc(OC[C@H](O)CN2CCOCC2)c1` gave a pEC50 of 5.46. `CCCNC[C@@H](O)COc1ccc(C)cc1C(=O)c1ccccc1` showed a pEC50 of 5.92. The same measure for `O=C(c1ccccc1)c1cccc(OC[C@H](O)CN2CCOCC2)c1`: 4.94; for `CC(=O)c1ccc(OC[C@H](O)CN2CCCCC2)cc1`: 4.31; for `Cc1ccccc1N1CCN(C[C@@H](O)COc2ccccc2[C@@H](O)CCc2ccccc2)CC1`: 7.35. In the case of `COc1ccccc1N1CCN([C@H]2c3ccccc3N(C(=O)c3ccc(C)cc3)[C@H](C)[C@@H]2O)CC1` it was 5.45; in that of `O=C(c1ccccc1)c1ccccc1OC[C@H](O)CN1CCOCC1`, 4.87. The same measure for `CC(C)[C@@H](CO)N(C)[C@@H]1c2cc(C#N)ccc2OC(C)(C)[C@H]1O`: 5.26; for `O=C(CCc1ccccc1)c1cccc(OC[C@H](O)CNCCC(c2ccccc2)c2ccccc2)c1`: 6.72. Consider `Cc1cccc(N2CCN(C[C@@H](O)COc3ccccc3[C@@H](O)CCc3ccccc3)CC2)c1C`, for which the pEC50 was 7.08. In the case of `CC(C)(C)OC(=O)CN[C@H]1c2cc(C#N)ccc2OC(C)(C)[C@@H]1O` it was 4.33; in that of `CC(=O)c1cc(C)ccc1OC[C@H](O)CN1CCOCC1`, 4.90.

As for `CCC(=O)c1ccccc1OC[C@H](O)CN1CCC(O)(c2ccccc2)CC1`, the pEC50 is 6.52. The same measure for `CC(=O)c1cccc(OC[C@H](O)CN2CCN(c3ccccc3C)CC2)c1`: 6.27; for `O=C(CCc1cccc2ccccc12)c1ccccc1OC[C@H](O)CN1CCN(c2ccc(F)cc2)CC1`: 7.75; for `COc1ccc(N2CCN(C[C@@H](O)COc3ccc(C)cc3C(C)=O)CC2)cc1`: 5.46. Compound `Cc1cccc(N2CCN(C[C@@H](O)COc3ccc(C(=O)c4ccccc4)cc3)CC2)c1C` showed a pEC50 of 6.18. With `CC(=O)c1cc(C)ccc1OC[C@H](O)CN1CCN(c2ccc(F)cc2)CC1`, the pEC50 was 5.44. Compound `CC1(C)Oc2ccc(C#N)cc2[C@H]2[C@H]1OCCN2Cc1ccccc1` had a pEC50 of 4.71.

Turning to `Cc1c(C(=O)c2ccccc2)c(=O)n(-c2ccccc2)n1C[C@H](O)CNC(C)C`, the pEC50 was 4.08. The same measure for `CCC(=O)c1ccc(OC[C@H](O)CN(C(C)C)C(C)C)cc1`: 5.11; for `CC(=O)c1cc(C)ccc1OC[C@H](O)CN1CCN(C[C@H](O)COc2ccccc2C(=O)c2ccccc2)CC1`: 5.02; for `CC(=O)c1cccc(OC[C@H](O)CN2CCCCC2)c1`: 5.04.

The compound `Cc1ccc(OC[C@H](O)CN2CCN(c3ccc(F)cc3)CC2)c(C(=O)CCc2ccccc2)c1` had a pEC50 of 6.61.

Regarding `CCN(CC)CCC[C@H](C)N[C@@H]1c2ccccc2N(C(=O)c2ccc(C)cc2)[C@H](C)[C@@H]1O`, the pEC50 was 5.57.

With `CC(C)(C)OC(=O)C(Cc1ccccc1)N[C@@H]1c2cc(C#N)ccc2OC(C)(C)[C@H]1O` (some centres undefined), the pEC50 is 6.26. In the case of `CC(C)(C)OC(=O)CN(Cc1ccccc1)[C@H]1c2cc(C#N)ccc2OC(C)(C)[C@@H]1O` it was 5.70. The same measure for `CC(=O)O[C@@H](COc1ccccc1C(=O)CCc1ccccc1)CN1CCCCC1`: 6.47; for `CC(C)[C@H](NC[C@@H](O)COc1ccccc1C(=O)CCc1ccccc1)c1ccccc1`: 6.68; for `CCN(CC)C[C@@H](O)COc1ccccc1C(=O)c1ccccc1`: 5.63. The same measure for `CC(=O)c1cccc(OC[C@H](O)CN2CCN(c3ccc(F)cc3)CC2)c1`: 5.00; for `CC(C)[C@@H]1CO[C@@H]2[C@@H](N1)c1cc(C#N)ccc1OC2(C)C`: 4.31; for `COc1ccc(C(=O)CCc2ccccc2)c(OC[C@H](O)CN2CCN(c3ccccc3C)CC2)c1`: 7.51. `COC(=O)c1ccc(NC[C@@H](O)COc2ccccc2C(=O)CCc2ccccc2)cc1` had a pEC50 of 5.81. In turn, `CC(C)[C@@H]1N[C@@H]2c3cc(C#N)ccc3OC(C)(C)[C@H]2OC1=O` showed a negative-log EC50 (pEC50) of 4.81. On to `O=C(CCc1ccccc1)c1ccccc1OC[C@H](O)CN1CCC(Cc2ccccc2)CC1`, for which the pEC50 is 6.59.

`O=C(CCc1ccccc1)c1cccc(OC[C@H](O)CN2CCCCC2)c1` had a pEC50 of 6.37. For the compound `C[C@@H](C(=O)OC(C)(C)C)N(C)[C@@H]1c2cc(C#N)ccc2OC(C)(C)[C@H]1O`, the pEC50 is 5.40. In the case of `Cc1ccc(CCC(=O)c2ccccc2OC[C@H](O)CN2CCN(c3ccccc3C)CC2)cc1` it was 7.74; in that of `Cc1ccccc1N1CCN(C[C@@H](O)COc2ccc(C(=O)c3ccccc3)cc2)CC1`, 6.30.

The compound `CC(C)N(C[C@@H](O)COc1ccc(C(=O)c2ccccc2)cc1)C(C)C` had a pEC50 of 6.36. In the case of `O=C(CCc1cccc2ccccc12)c1ccccc1OC[C@H](O)CN1CCCCC1` it was 6.76; in that of `CCN(CCO)[C@@H]1c2ccccc2N(C(=O)c2ccc(C)cc2)[C@H](C)[C@@H]1O`, 5.04; in that of `O=C(c1ccccc1)c1ccccc1OC[C@H](O)CN1CCC(O)(c2ccccc2)CC1`, 6.51. In the case of `CC(C)[C@@H]1C(=O)O[C@H]2[C@@H](c3cc(C#N)ccc3OC2(C)C)N1C` it was 4.10; in that of `COc1ccccc1N1CCN(C[C@@H](O)c2oc3ccccc3c2CCc2ccccc2)CC1`, 6.75. In turn, `O=C1C[C@H](CN2CCN(Cc3ccccc3)CC2)Oc2ccccc21` gave a pEC50 of 5.05.

`O=C(CCc1ccccc1)c1ccccc1OC[C@H](O)CN1CCCCC1` had a pEC50 of 6.22. The same measure for `O[C@@H](COc1ccccc1[C@H](O)CCc1ccccc1)CN1CCN(c2ccc(F)cc2)CC1`: 6.17. The compound `CC(=O)c1cccc(OC[C@H](O)CN2CCOCC2)c1` showed a pEC50 of 3.89.

Consider `Cc1ccccc1N1CCN(C[C@@H](O)COc2cc(Cl)c(Cl)cc2C(=O)CCc2ccccc2)CC1`, for which the pEC50 was 7.77.

Compound `CC(C)(C)c1ccc(N2C(=O)c3ccccc3N[C@H]2c2ccc3c(c2)OCO3)cc1` had a pEC50 of 6.13.

The values above are taken from ChEMBL document CHEMBL2449286, “Structure-activity data for a series of P-glycoprotein inhibitors (Supplementary Data to CHEMBL1142990)”.
